Data taken from patent EP4725956A1, “MODIFIED POLYPEPTIDE AND USE THEREOF IN FIELD OF ANALGESIA” (Nanjing Anji Biotechnology Co., Ltd., priority 2023, dated 2024).
Positions of bridges follow the written chain, without caps; N, C: chain ends. Non-standard residues stand in square brackets, D forms with d. Residues, ends and D or L forms follow the SMILES beside them. Hyp = O=C(O)[C@@H]1C[C@@H](O)CN1; Aib = CC(C)(N)C(=O)O

How the values were obtained:
α9 nAChR = target: T1, α9 nAChR (Homo sapiens, UniProt Q9UGM1); experiment: BLI (biolayer interferometry) affinity of peptides to α9 nAChR; type: binding; conditions: NTA sensor, α9 nAChR 5 µg/mL, peptide 1.372-1000 nM in PBS
T1 construct: inferred from capture on NTA sensor
Description: (§1) BLI is a label-free technology that converts optical interference signals occurring on the surface of BLI biosensors into real-time response signals. By monitoring the molecular binding process in real time, the system determines association rate constants (ka or kon), dissociation rate constants (kd or koff), and initial binding rates, and calculates affinity (KD) by fitting analysis. Here are the specific procedures: NTA sensors (Sartorius) were placed in a pre-wetting tray, which was then positioned in a black 96-well plate with 200 µL PBS per well. The NTA sensors were pre-wetted for at least 15 minutes. The target protein α9 nAChR was diluted in PBS to 5 µg/mL, with 200 µL added per well. Test peptides were dissolved in PBS and serially diluted threefold, with concentrations from high to low as 1000 nM, 333.3 nM, 111.1 nM, 37.04 nM, 12.35 nM, 4.115 nM, and 1.372 nM, with an additional well with PBS only as a zeroconcentration control. After equilibrating the instrument baseline, the NTA sensor was used to immobilize the target protein α9 nAChR. Once immobilization was complete, the baseline was re-equilibrated, followed by a 5-minute association and a 5-minute dissociation phase. Affinity measurements of the test peptides were conducted sequentially using the above procedure. The procedure for measuring peptide affinity to α7 nAChR was similar, except that the α7 nAChR concentration was 20 µg/mL. Tables 2 and 3 show the BLI-determined affinities of alanine-scan peptide analogs with target proteins, which identified sites on the parent peptide suitable for modification. Subsequently, single-site non-natural amino acid substituted peptides were evaluated by BLI for target protein affinity. Finally, multi-site combinatorial modified peptides were measured for affinity by BLI, leading to the selection of high-affinity peptides for further screen and drug development potential. Table 2 Test Results for Affinity of Modified Peptides to α9 nAChR

[1] = system: mouse oxaliplatin acute chemotherapy pain model; experiment: Mouse oxaliplatin chemotherapy pain model, multiple peptides (Example 8); type: in vivo; conditions: single dose 3 mg/kg s.c., 0.5-8 h post-dose, n=3
Method: Oxaliplatin was dissolved in 5% glucose solution to a concentration of 1 mg/mL. For model induction, each male C57 mouse (Shanghai Bikai Keyi Biotechnology Co., Ltd.) received a single intraperitoneal injection of oxaliplatin at 10 mg/kg. Mice in the negative control or blank control group received 5% glucose solution. Approximately one week after model induction, mechanical pain thresholds of the mice were measured three times per mouse, and the average value was calculated. Mice were then randomly assigned to groups based on their pain thresholds. Drug administration was carried out according to the dosing schedule shown in Table 7, with a single dose per mouse. Mechanical pain thresholds were measured at 0.5, 1, 2, 4, 6, and 8 h post-dose. […] Table 7 Dosing Scheme for Oxaliplatin Chemotherapy Pain Model in Mice

[2] = Plasma stability of AJ003-40 and AJ003-24 (HPLC, Example 4); type: in vitro ADME; conditions: human plasma; for main peak area: 2 mg/mL
Method: Peptides AJ003-40 and AJ003-24 were separately weighed and mixed with human plasma to prepare solutions at 2 mg/mL. 300 µL of peptide-containing plasma was mixed with 300 µL acetonitrile, centrifuged at 4°C and 12,000 rpm for 5 minutes, and the supernatant was filtered through an organic membrane. 200 µL of the filtrate was transferred to an LC vial as the 0 h sample. Peptide-containing plasma was incubated in a 37°C water bath. For AJ003-40, 300 µL of plasma was sampled at 24 h, mixed with 300 µL acetonitrile, centrifuged, filtered, and 200 µL of the filtrate was transferred to an LC vial as the 24 h sample. For AJ003-24, 300 µL of plasma was sampled at 22 h, processed similarly, and 200 µL of the filtrate was transferred to an LC vial as the 22 h sample.

α7 nAChR = α7 nAChR (Homo sapiens, UniProt P36544); experiment: BLI (biolayer interferometry) affinity of peptides to α7 nAChR; type: binding; design: inferred from the 'similar' procedure on NTA sensors; conditions: NTA sensor, α7 nAChR 20 µg/mL, peptide 1.372-1000 nM in PBS
Description: as §1

α9α10 nAChRs = α9α10 nAChRs (Homo sapiens, UniProt Q9GZZ6+Q9UGM1); conditions: cited from earlier work
Cav2.2 channel = Cav2.2 channel (Homo sapiens, UniProt Q00975); conditions: cited from earlier work
Sequence of Cav2.2 channel (Q00975 whole entry, looked up): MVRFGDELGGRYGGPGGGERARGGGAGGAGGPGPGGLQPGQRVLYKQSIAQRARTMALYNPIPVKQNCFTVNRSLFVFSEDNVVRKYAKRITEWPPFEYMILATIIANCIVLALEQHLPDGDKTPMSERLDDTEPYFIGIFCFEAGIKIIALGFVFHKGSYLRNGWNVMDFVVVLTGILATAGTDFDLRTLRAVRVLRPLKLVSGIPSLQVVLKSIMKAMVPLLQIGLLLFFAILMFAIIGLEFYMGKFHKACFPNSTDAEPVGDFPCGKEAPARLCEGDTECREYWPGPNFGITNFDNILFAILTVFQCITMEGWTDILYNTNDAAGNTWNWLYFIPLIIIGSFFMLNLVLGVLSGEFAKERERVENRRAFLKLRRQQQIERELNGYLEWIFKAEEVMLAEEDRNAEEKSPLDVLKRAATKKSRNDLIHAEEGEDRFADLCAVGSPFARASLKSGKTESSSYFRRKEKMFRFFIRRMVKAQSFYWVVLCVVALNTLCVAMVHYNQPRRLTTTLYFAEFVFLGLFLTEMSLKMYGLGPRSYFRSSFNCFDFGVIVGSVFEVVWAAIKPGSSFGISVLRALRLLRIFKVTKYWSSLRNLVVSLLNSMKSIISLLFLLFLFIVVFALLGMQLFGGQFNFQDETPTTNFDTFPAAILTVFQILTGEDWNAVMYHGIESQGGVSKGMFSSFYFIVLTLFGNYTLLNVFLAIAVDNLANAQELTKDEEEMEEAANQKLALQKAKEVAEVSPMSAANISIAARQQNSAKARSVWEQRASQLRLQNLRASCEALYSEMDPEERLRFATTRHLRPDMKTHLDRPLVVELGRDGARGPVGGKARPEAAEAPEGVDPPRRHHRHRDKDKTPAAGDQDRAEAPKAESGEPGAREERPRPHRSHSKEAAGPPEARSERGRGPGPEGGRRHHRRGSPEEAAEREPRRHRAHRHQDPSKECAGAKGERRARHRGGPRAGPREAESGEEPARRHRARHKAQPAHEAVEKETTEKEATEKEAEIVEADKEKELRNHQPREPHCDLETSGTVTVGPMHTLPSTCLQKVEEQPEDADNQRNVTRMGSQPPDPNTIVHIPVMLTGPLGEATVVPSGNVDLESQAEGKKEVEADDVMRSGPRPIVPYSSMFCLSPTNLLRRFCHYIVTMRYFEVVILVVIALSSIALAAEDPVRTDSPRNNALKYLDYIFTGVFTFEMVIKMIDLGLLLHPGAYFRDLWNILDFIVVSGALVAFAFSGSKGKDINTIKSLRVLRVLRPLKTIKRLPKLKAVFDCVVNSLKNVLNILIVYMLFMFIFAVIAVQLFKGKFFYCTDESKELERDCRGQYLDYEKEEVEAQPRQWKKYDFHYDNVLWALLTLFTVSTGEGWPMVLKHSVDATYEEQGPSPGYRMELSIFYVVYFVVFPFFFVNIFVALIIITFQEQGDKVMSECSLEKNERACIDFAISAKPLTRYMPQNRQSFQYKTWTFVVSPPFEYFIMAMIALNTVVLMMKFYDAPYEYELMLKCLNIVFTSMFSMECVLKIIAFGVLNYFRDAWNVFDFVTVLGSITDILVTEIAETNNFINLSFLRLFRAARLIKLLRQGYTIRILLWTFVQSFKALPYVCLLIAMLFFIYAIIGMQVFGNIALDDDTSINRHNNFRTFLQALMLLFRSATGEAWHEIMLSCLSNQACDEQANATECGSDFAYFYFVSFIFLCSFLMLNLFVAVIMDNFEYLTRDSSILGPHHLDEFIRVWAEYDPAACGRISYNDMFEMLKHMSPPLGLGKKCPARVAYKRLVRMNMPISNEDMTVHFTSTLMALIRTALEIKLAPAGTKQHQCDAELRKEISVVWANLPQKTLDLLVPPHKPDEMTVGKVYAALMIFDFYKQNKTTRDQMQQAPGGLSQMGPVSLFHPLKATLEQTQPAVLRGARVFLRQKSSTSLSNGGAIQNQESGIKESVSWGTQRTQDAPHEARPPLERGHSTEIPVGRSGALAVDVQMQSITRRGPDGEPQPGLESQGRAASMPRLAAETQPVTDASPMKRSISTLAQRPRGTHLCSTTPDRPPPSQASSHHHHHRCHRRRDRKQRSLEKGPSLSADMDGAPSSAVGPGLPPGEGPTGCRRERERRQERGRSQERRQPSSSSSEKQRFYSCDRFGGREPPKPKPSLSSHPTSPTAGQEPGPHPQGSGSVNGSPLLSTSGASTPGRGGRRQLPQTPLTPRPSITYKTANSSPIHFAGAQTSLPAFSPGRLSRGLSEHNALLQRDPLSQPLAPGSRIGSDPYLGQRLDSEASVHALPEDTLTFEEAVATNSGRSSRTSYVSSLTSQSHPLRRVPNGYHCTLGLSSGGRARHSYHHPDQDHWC

T1 sequence (Q9UGM1 23-479): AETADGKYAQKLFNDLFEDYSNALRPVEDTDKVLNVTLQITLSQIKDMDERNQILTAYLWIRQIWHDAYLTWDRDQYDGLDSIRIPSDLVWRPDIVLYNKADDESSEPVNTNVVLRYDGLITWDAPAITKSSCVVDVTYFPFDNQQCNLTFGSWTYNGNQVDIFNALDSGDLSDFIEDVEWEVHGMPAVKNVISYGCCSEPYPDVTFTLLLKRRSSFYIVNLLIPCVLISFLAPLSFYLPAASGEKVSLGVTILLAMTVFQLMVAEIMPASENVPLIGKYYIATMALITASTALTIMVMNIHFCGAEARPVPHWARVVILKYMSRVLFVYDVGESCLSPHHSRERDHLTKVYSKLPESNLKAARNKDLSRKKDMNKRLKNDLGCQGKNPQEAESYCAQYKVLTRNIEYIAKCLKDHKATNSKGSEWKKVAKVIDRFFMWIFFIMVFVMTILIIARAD
Sequence of α9α10 nAChRs (Q9UGM1 26-479 limits assumed): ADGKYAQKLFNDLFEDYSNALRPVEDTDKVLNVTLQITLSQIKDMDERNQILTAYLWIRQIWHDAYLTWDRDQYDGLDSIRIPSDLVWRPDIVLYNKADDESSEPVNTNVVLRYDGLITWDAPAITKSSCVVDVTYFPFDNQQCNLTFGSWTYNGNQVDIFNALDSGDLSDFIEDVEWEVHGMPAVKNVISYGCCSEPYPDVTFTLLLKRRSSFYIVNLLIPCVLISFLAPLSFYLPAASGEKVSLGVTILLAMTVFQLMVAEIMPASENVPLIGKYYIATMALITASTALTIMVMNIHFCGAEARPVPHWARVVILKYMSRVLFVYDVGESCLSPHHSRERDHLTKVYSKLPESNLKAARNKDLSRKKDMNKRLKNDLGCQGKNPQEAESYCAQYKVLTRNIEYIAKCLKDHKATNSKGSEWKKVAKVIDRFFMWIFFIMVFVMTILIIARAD
Sequence of α9α10 nAChRs (Q9GZZ6 25-450): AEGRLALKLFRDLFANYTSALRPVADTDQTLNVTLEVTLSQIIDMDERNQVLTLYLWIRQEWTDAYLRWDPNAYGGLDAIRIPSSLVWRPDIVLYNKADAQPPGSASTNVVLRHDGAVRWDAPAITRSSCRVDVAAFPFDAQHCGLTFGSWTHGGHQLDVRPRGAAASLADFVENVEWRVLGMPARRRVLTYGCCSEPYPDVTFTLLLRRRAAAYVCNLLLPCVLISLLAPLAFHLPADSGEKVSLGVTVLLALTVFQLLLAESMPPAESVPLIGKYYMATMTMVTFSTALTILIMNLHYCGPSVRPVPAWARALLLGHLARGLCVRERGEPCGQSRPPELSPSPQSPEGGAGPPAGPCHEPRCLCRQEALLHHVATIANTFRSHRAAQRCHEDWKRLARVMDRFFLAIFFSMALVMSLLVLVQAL
Sequence of α7 nAChR (P36544 23-502): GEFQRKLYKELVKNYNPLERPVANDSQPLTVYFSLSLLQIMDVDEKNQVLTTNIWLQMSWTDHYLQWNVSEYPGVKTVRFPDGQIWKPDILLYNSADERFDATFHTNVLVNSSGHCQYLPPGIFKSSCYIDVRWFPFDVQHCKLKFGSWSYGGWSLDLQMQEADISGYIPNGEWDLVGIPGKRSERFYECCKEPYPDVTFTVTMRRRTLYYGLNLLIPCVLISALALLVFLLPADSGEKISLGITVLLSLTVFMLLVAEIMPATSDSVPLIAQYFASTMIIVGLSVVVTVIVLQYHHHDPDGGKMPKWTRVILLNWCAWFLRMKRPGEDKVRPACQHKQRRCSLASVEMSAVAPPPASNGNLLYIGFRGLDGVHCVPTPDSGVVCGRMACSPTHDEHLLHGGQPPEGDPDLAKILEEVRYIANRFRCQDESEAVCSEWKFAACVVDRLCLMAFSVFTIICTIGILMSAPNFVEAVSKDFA

CC(C)C[C@H](NC(=O)[C@@H](NC(=O)[C@H]1CSSC[C@H](NC(=O)[C@H](CO)NC(=O)CN)C(=O)N[C@@H](CO)C(=O)N[C@H]([C@H](C)O)C(=O)N2C[C@H](O)C[C@H]2C(=O)N2CCC[C@H]2C(=O)N[C@@H](CO)C(=O)N1)C(C)C)C(=O)N[C@@H](Cc1ccc(O)cc1)C(=O)N[C@@H](CO)C(=O)O [AJ003-16, GSCS-(D-Thr)-Hyp-PS-(D-Cys)-VLYS (3,9 disulfide bond)] (H-GSCS[dT][Hyp]PS[dC]VLYS-OH; disulfide 3-9)
Kd (α9 nAChR): 35.3 nM

CC(C)C[C@H](NC(=O)[C@@H](NC(=O)[C@H]1CSSC[C@H](NC(=O)[C@H](CO)NC(=O)CN)C(=O)N[C@@H](CO)C(=O)N[C@H]([C@H](C)O)C(=O)N2CCC[C@H]2C(=O)N2C[C@H](O)C[C@H]2C(=O)N[C@@H](CO)C(=O)N1)C(C)C)C(=O)N[C@@H](Cc1ccc(O)cc1)C(=O)N[C@@H](CO)C(=O)O [AJ003-17, GSCS-(D-Thr)-P-Hyp-S-(D-Cys)-VLYS (3,9 disulfide bond)] (H-GSCS[dT]P[Hyp]S[dC]VLYS-OH; disulfide 3-9)
Kd (α9 nAChR): 110 nM

CC(C)C[C@H](NC(=O)[C@@H](NC(=O)[C@H]1CSSC[C@H](NC(=O)[C@H](CO)NC(=O)CN)C(=O)N[C@@H](CO)C(=O)N[C@H]([C@H](C)O)C(=O)N2CCC[C@H]2C(=O)N2CCC[C@H]2C(=O)NCC(=O)N1)C(C)C)C(=O)N[C@@H](Cc1ccc(O)cc1)C(=O)N[C@@H](CO)C(=O)O [AJ003-24, GSCS-(D-Thr)-PPG-(D-Cys)-VLYS (3,9 disulfide bond)] (H-GSCS[dT]PPG[dC]VLYS-OH; disulfide 3-9)
analgesic activity against oxaliplatin-induced chemotherapy pain (mechanical pain threshold compared with the model group) [1]: ineffective | main peak area ([2]; 0 h): 746.80 | main peak area ([2]; 37°C, 22 h): 267.45 | metabolised at 22 h, 2 mg/mL ([2]; 37°C, 22 h, read-out: degradation): 64.2%

CC(C)C[C@H](NC(=O)C(C)(C)NC(=O)[C@H]1CSSC[C@H](NC(=O)[C@H](CO)NC(=O)CN)C(=O)N[C@@H](CO)C(=O)N[C@H]([C@H](C)O)C(=O)N2CCC[C@H]2C(=O)N2CCC[C@H]2C(=O)N[C@@H](CO)C(=O)N1)C(=O)N[C@@H](Cc1ccc(O)cc1)C(=O)N[C@@H](CO)C(=O)O [AJ003-25, GSCS-(D-Thr)-PPS-(D-Cys)-Aib-LYS (3,9 disulfide bond)] (H-GSCS[dT]PPS[dC][Aib]LYS-OH; disulfide 3-9)
analgesic activity against oxaliplatin-induced chemotherapy pain (mechanical pain threshold compared with the model group) [1]: ineffective | Kd (α7 nAChR): 4670 nM

Vc1.1
reduction of activity on human receptors compared to rat receptors (α9α10 nAChRs): approximately 100 fold

ziconotide
analgesic potency relative to opioids (Cav2.2 channel): approximately 1000 times
